Activity calls are given as the source filed them. The rule behind the calls is not given here.
Experiments:
Hippocampus [1] = assay: Neuroprotective activity against amyloid beta-42-induced synaptic failure in C57bl6 mouse hippocampal slices assessed as increase of VGlut1 protein level at 1 to 100 uM uM after 1 hr by Western blot analysis; type: functional, tissue-based
Hippocampus [2] = assay: Neuroprotective activity against amyloid beta-42-induced synaptic failure in C57bl6 mouse hippocampal slices assessed as increase of PSD95 protein level at 10 to 100 uM uM after 1 hr by Western blot analysis; type: functional, tissue-based
[3] = molecular target: Amyloid-beta precursor protein (Homo sapiens) (UniProt P05067); assay: Inhibition of amyloid beta-42 (unknown origin) aggregation assessed as amyloid fibril formation at 10 uM after 24 hrs by thioflavin T fluorescence method
Chain of Amyloid-beta precursor protein (Homo sapiens) (P05067 whole entry): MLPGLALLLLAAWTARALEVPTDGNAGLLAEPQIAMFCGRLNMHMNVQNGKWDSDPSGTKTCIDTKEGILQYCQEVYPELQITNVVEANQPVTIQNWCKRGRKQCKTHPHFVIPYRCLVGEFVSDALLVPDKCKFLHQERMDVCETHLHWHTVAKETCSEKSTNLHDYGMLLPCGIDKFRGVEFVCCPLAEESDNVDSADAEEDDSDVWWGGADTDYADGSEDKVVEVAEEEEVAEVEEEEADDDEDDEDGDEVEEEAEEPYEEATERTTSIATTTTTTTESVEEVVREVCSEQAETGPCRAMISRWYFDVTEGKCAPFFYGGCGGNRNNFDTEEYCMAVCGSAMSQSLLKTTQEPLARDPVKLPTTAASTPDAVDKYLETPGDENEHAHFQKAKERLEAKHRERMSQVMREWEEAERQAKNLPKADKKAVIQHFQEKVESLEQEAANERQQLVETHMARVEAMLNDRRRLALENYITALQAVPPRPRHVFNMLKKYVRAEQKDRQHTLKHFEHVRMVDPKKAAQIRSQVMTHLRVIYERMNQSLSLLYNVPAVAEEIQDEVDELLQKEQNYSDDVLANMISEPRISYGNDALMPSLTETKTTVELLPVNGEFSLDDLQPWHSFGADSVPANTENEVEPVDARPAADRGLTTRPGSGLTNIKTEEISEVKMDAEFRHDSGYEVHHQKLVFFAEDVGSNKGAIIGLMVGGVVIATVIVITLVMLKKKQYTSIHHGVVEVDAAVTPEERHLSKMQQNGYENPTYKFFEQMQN

Mus musculus [4] = assay: Antialzheimer activity in APP-PS1 transgenic 11 month old mouse hippocampus assessed as reduction of hexamers of amyloid beta level at 2 mg/kg, ip administered 3 times in a week for 4 weeks by immunoblot analysis; type: functional, organism-based; set-up: dose 2 mg/kg
Hippocampus [5] = assay: Neuroprotective activity against amyloid beta-42-induced synaptic failure in C57bl6 mouse hippocampal slices assessed as increase of SYP protein level at 1 to 100 uM uM after 1 hr by Western blot analysis; type: functional, tissue-based
Mus musculus [6] = assay: Antialzheimer activity in APP-PS1 transgenic 7 month old mouse hippocampus assessed as reduction of hexamers of amyloid beta level at 2 mg/kg, ip administered 3 times in a week for 4 weeks by immunoblot analysis; type: functional, organism-based; set-up: dose 2 mg/kg
Mus musculus [7] = assay: Antialzheimer activity in APP-PS1 transgenic 11 month old mouse hippocampus assessed as reduction of dodecamer of amyloid beta level at 2 mg/kg, ip administered 3 times in a week for 4 weeks by immunoblot analysis; type: functional, organism-based; set-up: dose 2 mg/kg
Hippocampus [8] = assay: Neuroprotective activity against amyloid beta-42-induced synaptic failure in C57bl6 mouse hippocampal slices assessed as increase of SYN protein level at 1 to 100 uM uM after 1 hr by Western blot analysis; type: functional, tissue-based
[9] = molecular target: Amyloid-beta precursor protein (Homo sapiens) (UniProt P05067); assay: Inhibition of aggregation of amyloid beta-42 (unknown origin) expressed in Escherichia coli BL21 (DE3) assessed as amyloid fibril formation at 10 uM after 24 hrs by thioflavin S fluorescence method
Hippocampus [10] = assay: Neuroprotective activity against amyloid beta-42-induced synaptic failure in C57bl6 mouse hippocampal slices assessed as induction of field excitatory postsynaptic potential at 10 uM after 1 hr by electrophysiology assay relative to control; type: functional
[11] = molecular target: Microtubule-associated protein tau (Homo sapiens) (UniProt P10636); assay: Inhibition of aggregation of tau protein (unknown origin) expressed in Escherichia coli BL21 (DE3) assessed as amyloid fibril formation at 10 uM after 24 hrs by thioflavin S fluorescence method
Chain of Microtubule-associated protein tau (Homo sapiens) (P10636 whole entry): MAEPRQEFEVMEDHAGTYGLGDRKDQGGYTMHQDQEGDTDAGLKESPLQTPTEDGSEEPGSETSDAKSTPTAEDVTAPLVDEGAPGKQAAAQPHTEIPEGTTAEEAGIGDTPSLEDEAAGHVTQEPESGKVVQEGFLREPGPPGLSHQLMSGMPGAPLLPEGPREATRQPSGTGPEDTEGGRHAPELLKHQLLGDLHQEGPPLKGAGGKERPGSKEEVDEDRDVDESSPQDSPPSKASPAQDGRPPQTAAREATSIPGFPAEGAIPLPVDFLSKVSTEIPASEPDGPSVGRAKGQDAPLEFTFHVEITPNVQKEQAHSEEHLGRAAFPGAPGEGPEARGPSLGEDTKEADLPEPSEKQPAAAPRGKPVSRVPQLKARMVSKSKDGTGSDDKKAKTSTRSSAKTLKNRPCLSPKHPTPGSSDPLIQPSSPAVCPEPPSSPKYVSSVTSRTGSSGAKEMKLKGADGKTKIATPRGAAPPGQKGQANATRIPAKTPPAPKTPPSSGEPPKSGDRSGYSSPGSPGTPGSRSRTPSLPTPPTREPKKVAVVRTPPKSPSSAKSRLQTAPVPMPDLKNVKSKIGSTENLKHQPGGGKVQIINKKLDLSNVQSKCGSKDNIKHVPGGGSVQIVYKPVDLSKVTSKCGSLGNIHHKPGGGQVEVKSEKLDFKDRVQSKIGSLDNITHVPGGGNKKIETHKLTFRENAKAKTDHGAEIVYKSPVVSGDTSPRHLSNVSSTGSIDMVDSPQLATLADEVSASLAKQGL

Hippocampus [12] = assay: Neuroprotective activity against amyloid beta-42-induced synaptic failure in C57bl6 mouse hippocampal slices assessed as increase of GluA2 protein level at 10 to 100 uM uM after 1 hr by Western blot analysis; type: functional, tissue-based
Hippocampus [13] = assay: Neuroprotective activity against amyloid beta-42-induced synaptic failure in C57bl6 mouse hippocampal slices assessed as induction of long-term potentiation at 10 uM after 1 hr by electrophysiology assay relative to control; type: functional
Mus musculus [14] = assay: Antialzheimer activity in APP-PS1 transgenic 7 month old mouse hippocampus assessed as reduction of dodecamer of amyloid beta level at 2 mg/kg, ip administered 3 times in a week for 4 weeks by immunoblot analysis; type: functional, organism-based; set-up: dose 2 mg/kg
[15] = Permeability of the compound by PAMPA assay; type: physicochemical; conditions: read-out: permeability
Beta-secretase 1 [16] = molecular target: T1, Beta-secretase 1 (Homo sapiens, UniProt P56817); assay: Inhibition of human recombinant BACE1 using methoxycoumarin-Ser-Glu-Val-Asn-Leu-Asp-Ala-Glu-Phe-Lys-dinitrophenyl as substrate preincubated for 1 hr by FRET assay
T1 sequence (P56817 whole entry): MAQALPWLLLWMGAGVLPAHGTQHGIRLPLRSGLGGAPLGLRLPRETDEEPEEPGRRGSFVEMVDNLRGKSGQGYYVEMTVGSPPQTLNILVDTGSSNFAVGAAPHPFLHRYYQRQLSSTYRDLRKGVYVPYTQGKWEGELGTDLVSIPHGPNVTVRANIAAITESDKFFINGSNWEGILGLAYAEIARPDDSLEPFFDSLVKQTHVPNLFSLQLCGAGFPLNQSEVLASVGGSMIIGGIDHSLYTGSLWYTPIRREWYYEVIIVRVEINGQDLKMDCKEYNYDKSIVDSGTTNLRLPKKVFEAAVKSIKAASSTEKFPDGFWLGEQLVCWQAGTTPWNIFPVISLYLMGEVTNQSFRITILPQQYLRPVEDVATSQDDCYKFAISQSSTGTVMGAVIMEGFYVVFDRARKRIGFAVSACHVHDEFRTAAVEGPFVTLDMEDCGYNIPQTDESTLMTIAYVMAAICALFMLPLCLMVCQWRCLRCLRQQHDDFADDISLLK

Hippocampus [17] = assay: Neuroprotective activity against amyloid beta-42-induced synaptic failure in C57bl6 mouse hippocampal slices assessed as increase of GluA2 protein level at 1 to 100 uM uM after 1 hr by Western blot analysis; type: functional, tissue-based
Hippocampus [18] = assay: Neuroprotective activity against amyloid beta-42-induced synaptic failure in C57bl6 mouse hippocampal slices assessed as increase of PSD95 protein level at 1 to 100 uM uM after 1 hr by Western blot analysis; type: functional, tissue-based
Beta-secretase 1 [19] = molecular target: T1, Beta-secretase 1; assay: Inhibition of human recombinant BACE1 using methoxycoumarin-Ser-Glu-Val-Asn-Leu-Asp-Ala-Glu-Phe-Lys-dinitrophenyl as substrate at 1 uM preincubated for 1 hr by FRET assay
Cholinesterase = Cholinesterase (Homo sapiens, UniProt P06276); assay: Inhibition of human serum BChE using butyrylthiocholine iodide as substrate preincubated for 20 mins by Ellman's method
Chain of Cholinesterase (P06276 whole entry): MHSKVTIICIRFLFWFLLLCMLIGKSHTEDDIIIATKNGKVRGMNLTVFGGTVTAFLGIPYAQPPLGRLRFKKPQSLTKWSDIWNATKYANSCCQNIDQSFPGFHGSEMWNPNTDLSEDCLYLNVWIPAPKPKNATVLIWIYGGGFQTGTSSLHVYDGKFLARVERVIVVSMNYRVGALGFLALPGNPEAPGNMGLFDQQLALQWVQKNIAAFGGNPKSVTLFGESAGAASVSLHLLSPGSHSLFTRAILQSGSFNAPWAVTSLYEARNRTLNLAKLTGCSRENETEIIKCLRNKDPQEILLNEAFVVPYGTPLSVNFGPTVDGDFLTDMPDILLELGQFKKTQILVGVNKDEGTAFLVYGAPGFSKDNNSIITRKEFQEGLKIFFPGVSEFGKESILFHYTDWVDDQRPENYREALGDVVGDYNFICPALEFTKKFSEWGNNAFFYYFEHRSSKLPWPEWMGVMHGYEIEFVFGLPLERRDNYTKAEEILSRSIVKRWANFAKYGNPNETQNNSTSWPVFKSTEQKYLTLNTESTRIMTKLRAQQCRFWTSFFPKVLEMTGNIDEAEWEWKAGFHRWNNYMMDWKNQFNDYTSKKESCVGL

Acetylcholinesterase = Acetylcholinesterase (Homo sapiens, UniProt P22303)
Chain of Acetylcholinesterase (P22303 whole entry): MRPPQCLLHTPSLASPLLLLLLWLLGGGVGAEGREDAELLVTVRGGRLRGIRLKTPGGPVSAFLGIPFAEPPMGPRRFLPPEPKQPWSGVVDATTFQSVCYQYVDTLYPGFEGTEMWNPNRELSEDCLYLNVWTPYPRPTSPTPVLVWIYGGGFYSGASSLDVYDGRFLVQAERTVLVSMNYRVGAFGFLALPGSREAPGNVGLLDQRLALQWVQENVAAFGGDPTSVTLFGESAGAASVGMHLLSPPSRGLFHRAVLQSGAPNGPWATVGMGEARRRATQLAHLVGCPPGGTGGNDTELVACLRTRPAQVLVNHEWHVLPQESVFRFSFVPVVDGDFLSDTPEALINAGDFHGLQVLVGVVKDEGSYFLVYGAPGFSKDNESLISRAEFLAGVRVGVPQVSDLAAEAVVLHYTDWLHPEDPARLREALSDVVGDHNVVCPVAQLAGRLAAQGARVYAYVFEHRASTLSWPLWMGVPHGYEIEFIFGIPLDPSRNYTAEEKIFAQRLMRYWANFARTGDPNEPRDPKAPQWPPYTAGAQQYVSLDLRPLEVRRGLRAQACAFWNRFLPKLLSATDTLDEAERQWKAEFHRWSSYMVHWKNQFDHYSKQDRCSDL
Description: Inhibition of human recombinant AChE using acetylthiocholine iodide as substrate preincubated for 20 mins by Ellman's method

Beta-secretase 1 [20] = molecular target: T1, Beta-secretase 1; conditions: 5 uM

inhibition [3]	inhibition [9]	inhibition [11]	Papp [15]	IC50 (Beta-secretase 1 [16]; read-out: IC50)	Structure (SMILES)	other results
43.2%	47.2%	34.3%	–	–	CC1=C[C@@H]2Cc3nc4cc(Cl)ccc4c(NCCCCCCCCCNC(=O)c4cc(O)c5c(c4)C(=O)c4cccc(O)c4C5=O)c3[C@H](C1)C2	Activity (Hippocampus [1]): Active; Activity (Hippocampus [2]): Active; Activity (Mus musculus [4]): inactive; Activity (Hippocampus [5]): inactive; Activity (Mus musculus [6]): Active; Activity (Mus musculus [7]): Active; Activity (Hippocampus [8]): inactive; Activity (Hippocampus [10]): inactive; Activity (Hippocampus [12]): Active; Activity (Hippocampus [13]): inactive; Activity (Mus musculus [14]): Active
32.4%	57.9%	23.1%	16.3 ×10⁻⁶ cm/s	2020 nM	CC1=CC2Cc3nc4cc(Cl)ccc4c(NCc4ccc(CNC(=O)c5cc(O)c6c(c5)C(=O)c5cccc(O)c5C6=O)cc4)c3C(C1)C2.Cl (racemic)	–
33.1%	50.2%	29.2%	22.4 ×10⁻⁶ cm/s	980 nM	CC1=CC2Cc3nc4cc(Cl)ccc4c(NCCCCCCCCNC(=O)c4cc(O)c5c(c4)C(=O)c4cccc(O)c4C5=O)c3C(C1)C2.Cl (racemic)	–
38%	47.9%	29.6%	21.5 ×10⁻⁶ cm/s	120 nM	CC1=CC2Cc3nc4cc(Cl)ccc4c(NCCCCCCCCCNC(=O)c4cc(O)c5c(c4)C(=O)c4cccc(O)c4C5=O)c3C(C1)C2.Cl (racemic)	–
35.3%	40.7%	46.3%	16.4 ×10⁻⁶ cm/s	1200 nM	CC1=CC2Cc3nc4cc(Cl)ccc4c(NCCCCCCCCCCCNC(=O)c4cc(O)c5c(c4)C(=O)c4cccc(O)c4C5=O)c3C(C1)C2.Cl (racemic)	–
–	inactive	inactive	–	–	CC1=CC2Cc3nc4cc(Cl)ccc4c(N)c3C(C1)C2.Cl (racemic)	–
38.4%	58.6%	24.9%	–	–	CC1=C[C@H]2Cc3nc4cc(Cl)ccc4c(NCCCCCCCCCNC(=O)c4cc(O)c5c(c4)C(=O)c4cccc(O)c4C5=O)c3[C@@H](C1)C2.Cl	Activity (Hippocampus [1]): inactive; Activity (Hippocampus [5]): inactive; Activity (Mus musculus [6]): Active; Activity (Mus musculus [7]): Active; Activity (Hippocampus [17]): Active; Activity (Hippocampus [8]): Active; Activity (Hippocampus [18]): Active; Activity (Hippocampus [10]): 200%; Activity (Hippocampus [13]): 200%; Activity (Mus musculus [14]): Active
11.5%	–	–	23.6 ×10⁻⁶ cm/s	> 5000 nM	CC1=C[C@@H]2Cc3nc4cc(Cl)ccc4c(N)c3[C@H](C1)C2	inhibition (Beta-secretase 1 [20]): 14%
40.9%	43.3%	57.1%	18.1 ×10⁻⁶ cm/s	1190 nM	CC1=CC2Cc3nc4cc(Cl)ccc4c(NCCCCCCCCCCNC(=O)c4cc(O)c5c(c4)C(=O)c4cccc(O)c4C5=O)c3C(C1)C2.Cl (racemic)	–
13.2%	–	–	25.4 ×10⁻⁶ cm/s	> 5000 nM	CC1=C[C@H]2Cc3nc4cc(Cl)ccc4c(N)c3[C@@H](C1)C2.Cl	–

Structure (SMILES)	inhibition [3]	inhibition [9]	inhibition [11]	Papp [15]	IC50 (Beta-secretase 1 [16]; read-out: IC50)	other results
CC1=CC2Cc3nc4cc(Cl)ccc4c(NCCCCCNC(=O)c4cc(O)c5c(c4)C(=O)c4cccc(O)c4C5=O)c3C(C1)C2.Cl (racemic)	38.7%	68%	43.7%	20 ×10⁻⁶ cm/s	–	inhibition (Beta-secretase 1 [19]): inactive; IC50 (Cholinesterase): 950 nM; IC50 (Acetylcholinesterase): 1.07 nM
CC1=CC2Cc3nc4cc(Cl)ccc4c(NCCCCCCCNC(=O)c4cc(O)c5c(c4)C(=O)c4cccc(O)c4C5=O)c3C(C1)C2.Cl (racemic)	40.6%	63.2%	52%	27.5 ×10⁻⁶ cm/s	–	inhibition (Beta-secretase 1 [19]): inactive; IC50 (Cholinesterase): 1460 nM; IC50 (Acetylcholinesterase): 3.18 nM
CC1=CC2Cc3nc4cc(Cl)ccc4c(NCCCCCCNC(=O)c4cc(O)c5c(c4)C(=O)c4cccc(O)c4C5=O)c3C(C1)C2 (racemic)	40.8%	68.4%	30.9%	–	–	inhibition (Beta-secretase 1 [19]): inactive; IC50 (Cholinesterase): 1070 nM; IC50 (Acetylcholinesterase): 1.52 nM
O=C(O)c1cc(O)c2c(c1)C(=O)c1cccc(O)c1C2=O [RHEIN]	–	49.9%	40.8%	2.7 ×10⁻⁶ cm/s	–	IC50 (Beta-secretase 1 [16]): Not Active; IC50 (Acetylcholinesterase): > 10000 nM

Source: ChEMBL document CHEMBL3232829, “Synthesis and multitarget biological profiling of a novel family of rhein derivatives as disease-modifying anti-Alzheimer agents” (J Med Chem, 2014)
